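These data come from cells grown in 96-well plates and exposed to compound for 48 hours at five concentrations. Definition used: TGI = concentration required for complete inhibition of growth.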
Tested on: P388 leukemia
Assay: NCI tumour cell line growth inhibition, 48 h

SMILES | TGI
COc1cc(O)c2c(c1)C(=O)c1cc3c(c(O)c1C2=O)C(OC1OC(C)C(O)C(O)C1OC)C(OC)C(C)(O)C3=O (configuration not stated) | 25.2 µM
CNC(=O)c1cccc2c(Nc3ccc(NS(C)(=O)=O)cc3OC)c3cccc(C)c3nc12 | < 0.0384 µM
